Target: T1, FLK-1 receptor (Mus musculus, UniProt P35918)
T1 construct: expressed in transfected cells; host or cells: NIH3T3 C7#3 (FLK-1 infected cells)
Assay: ELISA Assay to Measure Kinase Activity of FLK-1 Receptor in FLK-1/NIH Cells
Type: cell-based, murine
Conditions: cellular, VEGF stimulated; read-out: ELISA DATA: FLK-1 - (Cell.)
Description: For purposes of this application, although the nomenclature of the human and murine counterparts of the generic "flk-l" receptor differ, they are, in many respects, interchangeable. The murine receptor, FLK1, and its human counterpart, KDR, share a sequence homology of 93.4% within the intracellular domain. Likewise, murine FLK-1 binds human VEGF with the same affinity as mouse VEGF, and accordingly, is activated by the ligand derived from either species. Millauer et al., 1993, Cell 72:835-846; Quinn et al., 1993, Proc. Natl. Acad. Sci. USA 90:7533-7537. FLK-1 also associates with and subsequently tyrosine phosphorylates human RTK substrates (e.g., PLC-γ or p85) when coexpressed in 293 cells (human embryonal kidney fibroblasts).
Models which rely upon the FLK-1 receptor therefore are directly applicable to understanding the KDR receptor. For example, use of the murine FLK-1 receptor in methods to identify compounds which regulate the signal transduction pathway are directly applicable to the identification of compounds which may be used to regulate the human signal transduction pathway, and more specifically, activity related to the KDR receptor. Chemical compounds identified as inhibitors of KDR/FLK-1 in vitro, will be confirmed in suitable in vivo models.
ELISA Assay to Measure Kinase Activity of FLK-1 Receptor in FLK-1/NIH Cells […]

T1 sequence (P35918 20-1345): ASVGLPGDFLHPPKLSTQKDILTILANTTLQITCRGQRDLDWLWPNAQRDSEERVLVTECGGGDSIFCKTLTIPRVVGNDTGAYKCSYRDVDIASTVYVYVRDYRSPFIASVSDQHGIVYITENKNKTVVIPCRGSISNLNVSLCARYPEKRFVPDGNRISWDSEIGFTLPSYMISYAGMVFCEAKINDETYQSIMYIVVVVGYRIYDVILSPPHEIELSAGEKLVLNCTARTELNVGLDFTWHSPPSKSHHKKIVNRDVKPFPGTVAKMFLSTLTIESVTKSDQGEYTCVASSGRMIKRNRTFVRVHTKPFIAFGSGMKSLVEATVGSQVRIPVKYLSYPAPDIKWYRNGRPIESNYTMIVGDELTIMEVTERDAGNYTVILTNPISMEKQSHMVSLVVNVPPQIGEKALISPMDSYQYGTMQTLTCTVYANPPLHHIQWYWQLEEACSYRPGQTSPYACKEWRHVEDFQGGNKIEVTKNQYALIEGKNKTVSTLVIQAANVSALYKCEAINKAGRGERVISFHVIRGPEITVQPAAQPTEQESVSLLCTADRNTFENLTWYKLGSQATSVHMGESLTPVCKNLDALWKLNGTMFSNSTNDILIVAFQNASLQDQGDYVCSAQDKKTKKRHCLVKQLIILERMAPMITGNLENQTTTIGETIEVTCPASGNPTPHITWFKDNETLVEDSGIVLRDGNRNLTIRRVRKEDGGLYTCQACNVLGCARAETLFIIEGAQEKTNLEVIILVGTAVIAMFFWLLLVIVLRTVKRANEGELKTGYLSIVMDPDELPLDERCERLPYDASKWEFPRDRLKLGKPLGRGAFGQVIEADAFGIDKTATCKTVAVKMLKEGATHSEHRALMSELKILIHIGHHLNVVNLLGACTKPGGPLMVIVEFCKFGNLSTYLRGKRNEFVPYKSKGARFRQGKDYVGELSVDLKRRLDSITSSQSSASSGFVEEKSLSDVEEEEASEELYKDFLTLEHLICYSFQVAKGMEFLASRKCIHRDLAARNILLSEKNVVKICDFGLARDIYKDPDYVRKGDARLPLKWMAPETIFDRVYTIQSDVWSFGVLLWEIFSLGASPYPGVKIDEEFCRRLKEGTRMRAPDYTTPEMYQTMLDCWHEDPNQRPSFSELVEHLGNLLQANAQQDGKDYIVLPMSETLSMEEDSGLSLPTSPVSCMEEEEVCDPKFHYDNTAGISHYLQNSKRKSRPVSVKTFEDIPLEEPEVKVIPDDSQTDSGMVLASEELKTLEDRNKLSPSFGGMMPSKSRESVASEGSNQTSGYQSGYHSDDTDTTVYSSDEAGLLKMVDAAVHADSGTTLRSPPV

Compound | IC50
CC(C)S(=O)(=O)c1csc(NC(=O)Nc2ccc(C(C)(C)C)cc2)c1Cl [Example Z1, N-[3-Chloro-4-(isopropylsulfonyl)thien-2-yl]-N'-(4-t-butylphenyl)urea] | 1 µM
CC(C)S(=O)(=O)c1csc(NC(=O)Nc2cc(C(F)(F)F)cc(C(F)(F)F)c2)c1Cl [Example Z2, N-[3-Chloro-4-(isopropylsulfonyl)thien-2-yl]-N'-(3,5-di-trifluoromethylphenyl)urea] | > 100 µM
